Patent US20250197864A1, “LNCRNA TRANSCRIPTS IN MELANOMAGENESIS” (The Regents of the University of California, priority 2021, published 2025)

Tested on: gene expression in D04 melanoma cells
Experiment: RNA-Seq differential expression analysis (DESeq2)
Format: cell-based, human
Conditions: up-regulated list
Experimental: Total RNA was isolated using the RNeasy mini Kit (QIAGEN) following the manufacturer's protocol. Quality check for extracted RNA was done using 2100 Bioanalyzer (Agilent Technologies, USA) or Tapestation System (Agilent Technologies, USA). […] For samples used for identification of MAPK-responsive lncRNAs, paired-end, 101-bp sequencing was performed by Centrillion Genomic Services (Centrillion Biosciences, USA) on an Illumina HiSeq 2000. For DE gene analysis of ASO-transfected D04 samples, paired-end, 2×150-bp sequencing was performed by Genewiz (USA) on a Illumina HiSeq.
Sequence reads were aligned to the human genome (hg19) using TopHat (Version 2.0.11).
Differential expression (DE) analysis was done using DESeq2. Differentially expressed genes were defined by more than 1.5-fold changes (log 2 >0.58 or <−0.58) in expression with FDR<0.05. GO term analysis was done using DAVID Functional Annotation Clustering analysis.
To examine the biomolecular changes upon TRASH-inhibition in melanoma, D04 cells were treated with TRASH-ASOs (SEQ ID NO:15) and Control-ASOs and RNA was extracted and used for RNA-Seq. […] These GO terms consisted of genes encoding growth factors, tyrosine kinases, G protein coupled receptor subunits, and collagen subunits. Scatter plot diagram showing differential gene expression after TRASH-ASO treatment compared to Control-ASO treatment. (cut-off for significance was adjusted p-value <0.05). Data was obtained from RNA-Seq of D04 melanoma cells, treatment period was three days. (FIG. 5c)

Sequence: GACTGGAGATAATTAA (gapmer, pattern not given here) [SEQ ID NO: 15, GapmeR ASO targeting AC004540.4 (TRASH), exon region of both isoforms; used for in vitro experiments]
- log2FoldChange HIST3H2A (ENSG00000181218): 0.6762
- log2FoldChange GPR3 (ENSG00000181773): 0.5989
- log2FoldChange IBA57 (ENSG00000181873): 0.6496
- log2FoldChange KCNJ14 (ENSG00000182324): 0.8416
- log2FoldChange MEX3B (ENSG00000183496): 0.7229
- log2FoldChange SLC35F3 (ENSG00000183780): 0.8791
- log2FoldChange TXNRD2 (ENSG00000184470): 0.5869
- log2FoldChange OSBP2 (ENSG00000184792): 1.106
- log2FoldChange SDR42E1 (ENSG00000184860): 0.9762
- log2FoldChange MAFF (ENSG00000185022): 0.6847
- log2FoldChange SOCS1 (ENSG00000185338): 0.6402
- log2FoldChange PMEL (ENSG00000185664): 0.9831
- log2FoldChange MYBL1 (ENSG00000185697): 0.6266
- log2FoldChange PCLO (ENSG00000186472): 0.6974
- log2FoldChange MT1X (ENSG00000187193): 0.7581
- log2FoldChange MAGEH1 (ENSG00000187601): 0.7858
- log2FoldChange ZFP69B (ENSG00000187801): 0.7093
- log2FoldChange ZP3 (ENSG00000188372): 0.8099
- log2FoldChange C22orf34 (ENSG00000188511): 0.661
- log2FoldChange GJB3 (ENSG00000188910): 1.136
- log2FoldChange GJB5 (ENSG00000189280): 1.088
- log2FoldChange SH2D5 (ENSG00000189410): 1.08
- log2FoldChange PLEKHG4 (ENSG00000196155): 0.6321
- log2FoldChange CD55 (ENSG00000196352): 0.645
- log2FoldChange NUDT11 (ENSG00000196368): 0.6654
- log2FoldChange AC009022.1 (ENSG00000196696): 0.6881
- log2FoldChange S100A2 (ENSG00000196754): 0.5809
- log2FoldChange SLC6A17 (ENSG00000197106): 1.129
- log2FoldChange ZNF860 (ENSG00000197385): 0.5877
- log2FoldChange VEPH1 (ENSG00000197415): 0.5803
- log2FoldChange ZNF841 (ENSG00000197608): 0.6523
- log2FoldChange SERPINB2 (ENSG00000197632): 0.8127
- log2FoldChange PDCD1LG2 (ENSG00000197646): 1.192
- log2FoldChange FAM49A (ENSG00000197872): 0.7378
- log2FoldChange HRNR (ENSG00000197915): 0.6084
- log2FoldChange CSF2RA (ENSG00000198223): 1.103
- log2FoldChange CD247 (ENSG00000198821): 1.07
- log2FoldChange HSD3BP5 (ENSG00000198857): 0.8606
- log2FoldChange LINC01291 (ENSG00000204792): 0.9824
- log2FoldChange KRT81 (ENSG00000205426): 0.8139
- log2FoldChange TRBC2 (ENSG00000211772): 0.6815
- log2FoldChange ANG (ENSG00000214274): 1.047
- log2FoldChange FER1L6 (ENSG00000214814): 0.6181
- log2FoldChange UBE2QL1 (ENSG00000215218): 0.6007
- log2FoldChange PLXNA4 (ENSG00000221866): 1.101
- log2FoldChange RNU2-63P (ENSG00000222724): 0.6055
- log2FoldChange ROR1-AS1 (ENSG00000223949): 0.9732
- log2FoldChange ZMIZ1-AS1 (ENSG00000224596): 0.9113
- log2FoldChange AC017002.1 (ENSG00000224959): 0.6679
- log2FoldChange AL354740.1 (ENSG00000225339): 0.7567
- log2FoldChange CFLAR-AS1 (ENSG00000226312): 0.8124
- log2FoldChange AC016831.1 (ENSG00000226380): 0.8375
- log2FoldChange ERVMER34-1 (ENSG00000226887): 0.9222
- log2FoldChange AC020571.1 (ENSG00000229056): 0.6243
- log2FoldChange AL589880.1 (ENSG00000229939): 0.6572
- log2FoldChange AL590666.2 (ENSG00000229953): 0.9636
- log2FoldChange LINC01293 (ENSG00000230836): 1.066
- log2FoldChange LINC00704 (ENSG00000231298): 0.7366
- log2FoldChange AL603650.1 (ENSG00000232355): 1.015
- log2FoldChange LINC02535 (ENSG00000234155): 1.054
- log2FoldChange PINLYP (ENSG00000234465): 0.7137
- log2FoldChange RPL13AP20 (ENSG00000234498): 1.162
- log2FoldChange C19orf81 (ENSG00000235034): 0.9948
- log2FoldChange LINC00941 (ENSG00000235884): 0.9292
- log2FoldChange PNMA6A (ENSG00000235961): 0.8869
- log2FoldChange AL354719.2 (ENSG00000236345): 1.16
- log2FoldChange GGT8P (ENSG00000236969): 1.181
- log2FoldChange AL138828.1 (ENSG00000237596): 1.06
- log2FoldChange OXCT2P1 (ENSG00000237624): 1.01
- log2FoldChange SPATA3-AS1 (ENSG00000238062): 1.082
- log2FoldChange AC026250.1 (ENSG00000245522): 0.9507
- log2FoldChange SBF2-AS1 (ENSG00000246273): 0.9574
- log2FoldChange AC104066.1 (ENSG00000248375): 0.8941
- log2FoldChange LINC02021 (ENSG00000249846): 1.04
- log2FoldChange AC091173.1 (ENSG00000251127): 1.149
- log2FoldChange SMG1P6 (ENSG00000254634): 1.045
- log2FoldChange ZNF10 (ENSG00000256223): 0.6255
- log2FoldChange C17orf100 (ENSG00000256806): 0.644
- log2FoldChange AC073611.1 (ENSG00000257605): 0.6207
- log2FoldChange LINC01579 (ENSG00000258754): 0.7555
- log2FoldChange AC013652.1 (ENSG00000259345): 0.6859
- log2FoldChange AC011468.1 (ENSG00000260160): 0.8721
- log2FoldChange LINC02170 (ENSG00000260896): 0.7455
- log2FoldChange LINC00622 (ENSG00000260941): 0.6079
- log2FoldChange EPPK1 (ENSG00000261150): 0.7148
- log2FoldChange LINC01029 (ENSG00000265843): 0.6081
- log2FoldChange PCAT19 (ENSG00000267107): 1.193
